The assay addresses T1, Vam7p PX domain (Saccharomyces cerevisiae, UniProt P32912).
T1 sequence (P32912 2-122): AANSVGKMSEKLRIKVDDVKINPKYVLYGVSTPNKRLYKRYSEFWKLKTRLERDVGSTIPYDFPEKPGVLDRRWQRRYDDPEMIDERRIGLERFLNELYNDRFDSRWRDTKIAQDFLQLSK
In words: 1H-15N HSQC NMR titration. Type of assay: binding.

The source of these data is paper PMC1838524 (The Journal of biological chemistry, 2006).

In the case of `CCCCCC(=O)OC[C@H](COP(=O)(O)OC[C@H](N)C(=O)O)OC(=O)CCCCC` [C6-PtdSer, 1,2-dicaproyl-sn-glycero-3-[phospho-L-serine]], the “1H-15N HSQC NMR titration (chemical shift perturbation)” value was “NMR titration of soluble dicaproyl (C6)-PtdSer into the PX domain”.
